Experimental data taken from patent publication US4868321A, “Isothiocyanate intermediates” (FMC Corporation, priority 1988, dated 1989).

What was measured:
Format in all cases: in vivo
Velvetleaf [1] = test: Postemergence Herbicidal Activity, Velvetleaf; conditions: Abutilon theophrasti, post-emergence; for pest or weed control at 250 g/ha: 0.25 kg/ha; for pest or weed control at 500 g/ha: 0.5 kg/ha
Summary of the method: (§1)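 Percent control scored after pre- or postemergence treatment at rates in kg/ha, using test compounds generally formulated in 50/50 acetone/water.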

Cotton [2] = test: Postemergence Herbicidal Activity, Cotton; conditions: Gossypium hirsutum, post-emergence; for plant injury at 250 g/ha: 0.25 kg/ha; for plant injury at 500 g/ha: 0.5 kg/ha
Summary of the method: as §1

Velvetleaf [3] = test: Preemergence Herbicidal Activity, Velvetleaf; conditions: Abutilon theophrasti, pre-emergence; for pest or weed control at 250 g/ha: 0.25 kg/ha; for pest or weed control at 500 g/ha: 0.5 kg/ha
Summary of the method: as §1

Field Bindweed [4] = test: Preemergence Herbicidal Activity, Field Bindweed; conditions: pre-emergence; for pest or weed control at 250 g/ha: 0.25 kg/ha; for pest or weed control at 500 g/ha: 0.5 kg/ha
Summary of the method: as §1

Morningglory [5] = test: Postemergence Herbicidal Activity, Morningglory; conditions: Ipomoea, post-emergence; for pest or weed control at 250 g/ha: 0.25 kg/ha; for pest or weed control at 500 g/ha: 0.5 kg/ha
Summary of the method: as §1

Green Foxtail [6] = test: Postemergence Herbicidal Activity, Green Foxtail; conditions: Setaria viridis, post-emergence; for pest or weed control at 250 g/ha: 0.25 kg/ha; for pest or weed control at 500 g/ha: 0.5 kg/ha
Summary of the method: (§2)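 Herbicidal response was graded as percent control. Compound rates were in kg/ha.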

Soybean [7] = test: Preemergence Herbicidal Activity, Soybean; conditions: Glycine max, pre-emergence; for plant injury at 250 g/ha: 0.25 kg/ha; for plant injury at 500 g/ha: 0.5 kg/ha
Summary of the method: (§3)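 Test compounds are dosed on a per-area basis (kg/ha); plant response is reported as % C.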

Barnyardgrass [8] = test: Preemergence Herbicidal Activity, Barnyardgrass; conditions: Echinochloa crus-galli, pre-emergence; for pest or weed control at 250 g/ha: 0.25 kg/ha; for pest or weed control at 500 g/ha: 0.5 kg/ha
Summary of the method: as §2

Wheat [9] = test: Postemergence Herbicidal Activity, Wheat; conditions: Triticum aestivum, post-emergence; for plant injury at 250 g/ha: 0.25 kg/ha; for plant injury at 500 g/ha: 0.5 kg/ha
Summary of the method: as §3

broad leaf weeds = test: preemergence use against broad leaf weeds; conditions: with crops such as corn, rice, wheat and soybeans
Soybean [10] = test: Postemergence Herbicidal Activity, Soybean; conditions: Glycine max, post-emergence; for plant injury at 250 g/ha: 0.25 kg/ha; for plant injury at 500 g/ha: 0.5 kg/ha
Summary of the method: as §3

Rice [11] = test: Postemergence Herbicidal Activity, Rice; conditions: Oryza sativa, post-emergence; for plant injury at 250 g/ha: 0.25 kg/ha; for plant injury at 500 g/ha: 0.5 kg/ha
Summary of the method: as §3

Green Foxtail [12] = test: Preemergence Herbicidal Activity, Green Foxtail; conditions: Setaria viridis, pre-emergence; for pest or weed control at 250 g/ha: 0.25 kg/ha; for pest or weed control at 500 g/ha: 0.5 kg/ha
Summary of the method: as §2

Johnsongrass [13] = test: Postemergence Herbicidal Activity, Johnsongrass; conditions: Sorghum halepense, post-emergence; for pest or weed control at 250 g/ha: 0.25 kg/ha; for pest or weed control at 500 g/ha: 0.5 kg/ha
Summary of the method: as §2

Johnsongrass [14] = test: Preemergence Herbicidal Activity, Johnsongrass; conditions: Sorghum halepense, pre-emergence; for pest or weed control at 250 g/ha: 0.25 kg/ha; for pest or weed control at 500 g/ha: 0.5 kg/ha
Summary of the method: as §2

Cotton [15] = test: Preemergence Herbicidal Activity, Cotton; conditions: Gossypium hirsutum, pre-emergence; for plant injury at 250 g/ha: 0.25 kg/ha; for plant injury at 500 g/ha: 0.5 kg/ha
Summary of the method: as §1

Morningglory [16] = test: Preemergence Herbicidal Activity, Morningglory; conditions: Ipomoea, pre-emergence; for pest or weed control at 250 g/ha: 0.25 kg/ha; for pest or weed control at 500 g/ha: 0.5 kg/ha
Summary of the method: as §1

Wheat [17] = test: Preemergence Herbicidal Activity, Wheat; conditions: Triticum aestivum, pre-emergence; for plant injury at 250 g/ha: 0.25 kg/ha; for plant injury at 500 g/ha: 0.5 kg/ha
Summary of the method: as §3

Field Corn [18] = test: Preemergence Herbicidal Activity, Field Corn; conditions: Zea mays, pre-emergence; for plant injury at 250 g/ha: 0.25 kg/ha; for plant injury at 500 g/ha: 0.5 kg/ha
Summary of the method: as §3

Field Corn [19] = test: Postemergence Herbicidal Activity, Field Corn; conditions: Zea mays, post-emergence; for plant injury at 250 g/ha: 0.25 kg/ha; for plant injury at 500 g/ha: 0.5 kg/ha
Summary of the method: as §3

Field Bindweed [20] = test: Postemergence Herbicidal Activity, Field Bindweed; conditions: post-emergence; for pest or weed control at 250 g/ha: 0.25 kg/ha; for pest or weed control at 500 g/ha: 0.5 kg/ha
Summary of the method: as §1

Barnyardgrass [21] = test: Postemergence Herbicidal Activity, Barnyardgrass; conditions: Echinochloa crus-galli, post-emergence; for pest or weed control at 250 g/ha: 0.25 kg/ha; for pest or weed control at 500 g/ha: 0.5 kg/ha
Summary of the method: as §2

Rice [22] = test: Preemergence Herbicidal Activity, Rice; conditions: Oryza sativa, pre-emergence; for plant injury at 250 g/ha: 0.25 kg/ha; for plant injury at 500 g/ha: 0.5 kg/ha
Summary of the method: as §3

CCS(=O)(=O)Nc1cc(-n2nnn(CCCF)c2=O)c(F)cc1Br [Compound 34, 1-[4-Bromo-2-fluoro-5-(N--ethylsulfonylamino)phenyl]-4,5-dihydro-]
pest or weed control at 250 g/ha (Velvetleaf [1]): 100%
plant injury at 250 g/ha (Cotton [2]): 100%
pest or weed control at 250 g/ha (Velvetleaf [3]): 100%
pest or weed control at 250 g/ha (Field Bindweed [4]): 100%
pest or weed control at 250 g/ha (Morningglory [5]): 100%
pest or weed control at 250 g/ha (Green Foxtail [6]): 90%
plant injury at 250 g/ha (Soybean [7]): 20%
pest or weed control at 250 g/ha (Barnyardgrass [8]): 95%
plant injury at 250 g/ha (Wheat [9]): 40%
usefulness preemergently against broad leaf weeds (broad leaf weeds): particularly useful
plant injury at 250 g/ha (Soybean [10]): 70%
plant injury at 250 g/ha (Rice [11]): 70%
pest or weed control at 250 g/ha (Green Foxtail [12]): 70%
pest or weed control at 250 g/ha (Johnsongrass [13]): 50%
pest or weed control at 250 g/ha (Johnsongrass [14]): 50%
plant injury at 250 g/ha (Cotton [15]): 95%
pest or weed control at 250 g/ha (Morningglory [16]): 100%
plant injury at 250 g/ha (Wheat [17]): 0%
plant injury at 250 g/ha (Field Corn [18]): 60%
plant injury at 250 g/ha (Field Corn [19]): 40%
pest or weed control at 250 g/ha (Field Bindweed [20]): 100%
pest or weed control at 250 g/ha (Barnyardgrass [21]): 70%
plant injury at 250 g/ha (Rice [22]): 60%

CS(=O)(=O)N(c1cc(-n2nnn(CCCF)c2=O)c(F)cc1F)S(C)(=O)=O [Compound 8, 1-[2,4-difluoro-5-[bis(N--methylsulfonyl)amino]phenyl]-1,4-dihydro-4-(3-fluoropropyl)-5H--tetrazol-5-one]
pest or weed control at 500 g/ha (Velvetleaf [1]): 95%
plant injury at 500 g/ha (Cotton [2]): 95%
pest or weed control at 500 g/ha (Velvetleaf [3]): 100%
pest or weed control at 500 g/ha (Field Bindweed [4]): 40%
pest or weed control at 500 g/ha (Morningglory [5]): 40%
pest or weed control at 500 g/ha (Green Foxtail [6]): 50%
plant injury at 500 g/ha (Soybean [7]): 30%
pest or weed control at 500 g/ha (Barnyardgrass [8]): 40%
plant injury at 500 g/ha (Wheat [9]): 30%
plant injury at 500 g/ha (Soybean [10]): 40%
plant injury at 500 g/ha (Rice [11]): 20%
pest or weed control at 500 g/ha (Green Foxtail [12]): 50%
pest or weed control at 500 g/ha (Johnsongrass [13]): 30%
pest or weed control at 500 g/ha (Johnsongrass [14]): 50%
plant injury at 500 g/ha (Cotton [15]): 95%
pest or weed control at 500 g/ha (Morningglory [16]): 60%
plant injury at 500 g/ha (Wheat [17]): 10%
plant injury at 500 g/ha (Field Corn [18]): 40%
plant injury at 500 g/ha (Field Corn [19]): 50%
pest or weed control at 500 g/ha (Field Bindweed [20]): 30%
pest or weed control at 500 g/ha (Barnyardgrass [21]): 40%
plant injury at 500 g/ha (Rice [22]): 70%

CCCS(=O)(=O)N(C)c1cc(-n2nnn(CCCF)c2=O)c(F)cc1Cl [Compound 29, 1-[4-Chloro-2-fluoro-5-(N--methyl-N--propylsulfonylamino)phenyl]-1,4-dihydro-4-(3-fluoropropyl)-5H--tetrazol-5-one]
pest or weed control at 250 g/ha (Velvetleaf [1]): 100%
plant injury at 250 g/ha (Cotton [2]): 70%
pest or weed control at 250 g/ha (Velvetleaf [3]): 100%
pest or weed control at 250 g/ha (Field Bindweed [4]): 70%
pest or weed control at 250 g/ha (Morningglory [5]): 70%
pest or weed control at 250 g/ha (Green Foxtail [6]): 60%
plant injury at 250 g/ha (Soybean [7]): 30%
pest or weed control at 250 g/ha (Barnyardgrass [8]): 100%
plant injury at 250 g/ha (Wheat [9]): 80%
plant injury at 250 g/ha (Soybean [10]): 70%
plant injury at 250 g/ha (Rice [11]): 60%
pest or weed control at 250 g/ha (Green Foxtail [12]): 100%
pest or weed control at 250 g/ha (Johnsongrass [13]): 70%
pest or weed control at 250 g/ha (Johnsongrass [14]): 100%
plant injury at 250 g/ha (Cotton [15]): 60%
pest or weed control at 250 g/ha (Morningglory [16]): 70%
plant injury at 250 g/ha (Wheat [17]): 80%
plant injury at 250 g/ha (Field Corn [18]): 95%
plant injury at 250 g/ha (Field Corn [19]): 40%
pest or weed control at 250 g/ha (Field Bindweed [20]): 80%
pest or weed control at 250 g/ha (Barnyardgrass [21]): 50%
plant injury at 250 g/ha (Rice [22]): 60%

CCS(=O)(=O)N(C)c1cc(-n2nnn(CCCF)c2=O)c(F)cc1Cl [Compound 12, 1-[4-chloro-2-fluoro-5-[(N--ethylsulfonyl-N--methyl)amino]phenyl]-1,4-dihydro-4-(3-fluoropropyl)-5H--tetrazol-5-one]
pest or weed control at 500 g/ha (Velvetleaf [1]): 100%
plant injury at 500 g/ha (Cotton [2]): 100%
pest or weed control at 500 g/ha (Velvetleaf [3]): 100%
pest or weed control at 500 g/ha (Field Bindweed [4]): 100%
pest or weed control at 500 g/ha (Morningglory [5]): 100%
pest or weed control at 500 g/ha (Green Foxtail [6]): 70%
plant injury at 500 g/ha (Soybean [7]): 80%
pest or weed control at 500 g/ha (Barnyardgrass [8]): 100%
plant injury at 500 g/ha (Wheat [9]): 80%
plant injury at 500 g/ha (Soybean [10]): 70%
plant injury at 500 g/ha (Rice [11]): 30%
pest or weed control at 500 g/ha (Green Foxtail [12]): 100%
pest or weed control at 500 g/ha (Johnsongrass [13]): 70%
pest or weed control at 500 g/ha (Johnsongrass [14]): 100%
plant injury at 500 g/ha (Cotton [15]): 100%
pest or weed control at 500 g/ha (Morningglory [16]): 100%
plant injury at 500 g/ha (Wheat [17]): 100%
plant injury at 500 g/ha (Field Corn [18]): 100%
plant injury at 500 g/ha (Field Corn [19]): 70%
pest or weed control at 500 g/ha (Field Bindweed [20]): 100%
pest or weed control at 500 g/ha (Barnyardgrass [21]): 70%
plant injury at 500 g/ha (Rice [22]): 90%

CS(=O)(=O)N(c1cc(-n2nnn(CCCF)c2=O)c(Cl)cc1F)S(C)(=O)=O [Compound 36, 1-[2-Chloro-4-fluoro-5-[bis-(N--methylsulfonyl)amino]phenyl]-4,5-dihydro-4-(3-fluoropropyl)-5H--tetrazol-5-one]
pest or weed control at 2000 g/ha (Velvetleaf [1]; 2.0 kg/ha): 90%
plant injury at 2000 g/ha (Cotton [2]; 2.0 kg/ha): 70%
pest or weed control at 2000 g/ha (Velvetleaf [3]; 2.0 kg/ha): 95%
pest or weed control at 2000 g/ha (Field Bindweed [4]; 2.0 kg/ha): 100%
pest or weed control at 2000 g/ha (Morningglory [5]; 2.0 kg/ha): 80%
pest or weed control at 2000 g/ha (Green Foxtail [6]; 2.0 kg/ha): 50%
plant injury at 2000 g/ha (Soybean [7]; 2.0 kg/ha): 0%
pest or weed control at 2000 g/ha (Barnyardgrass [8]; 2.0 kg/ha): 70%
plant injury at 2000 g/ha (Wheat [9]; 2.0 kg/ha): 10%
plant injury at 2000 g/ha (Soybean [10]; 2.0 kg/ha): 10%
plant injury at 2000 g/ha (Rice [11]; 2.0 kg/ha): 10%
pest or weed control at 2000 g/ha (Green Foxtail [12]; 2.0 kg/ha): 50%
pest or weed control at 2000 g/ha (Johnsongrass [13]; 2.0 kg/ha): 50%
pest or weed control at 2000 g/ha (Johnsongrass [14]; 2.0 kg/ha): 40%
plant injury at 2000 g/ha (Cotton [15]; 2.0 kg/ha): 70%
pest or weed control at 2000 g/ha (Morningglory [16]; 2.0 kg/ha): 90%
plant injury at 2000 g/ha (Wheat [17]; 2.0 kg/ha): 0%
plant injury at 2000 g/ha (Field Corn [18]; 2.0 kg/ha): 70%
plant injury at 2000 g/ha (Field Corn [19]; 2.0 kg/ha): 10%
pest or weed control at 2000 g/ha (Field Bindweed [20]; 2.0 kg/ha): 60%
pest or weed control at 2000 g/ha (Barnyardgrass [21]; 2.0 kg/ha): 50%
plant injury at 2000 g/ha (Rice [22]; 2.0 kg/ha): 0%
